In US20150051246A1 (priority 2013, published 2015):

Test system: healthy adults
Test: Verbal Learning Task (VLT) in healthy adults, 18 to 35 years
Assay type: in vivo, human
Text: The study utilized Verbal Learning Task (VLT) to analyze the increased number of words remembered following roflumilast administration. The VLT consisted of displaying 30 monosyllable words on a computer screen for a period of 60 seconds. Immediately after the presentation of the words on the computer screen subjects were asked to report as many words as they could recall by memory. This process (presentation and recall) was repeated further two times (VLT, immediate recall, 3 trials). In addition, 45 min and 24 h after the last presentation, subjects were again asked to report as many words as they could recall by memory (VLT, delayed recall 45 min and 24 h). The set of three recall trials was conducted 60 minutes following administration of the roflumilast therapy
Statistical Data Analyses Human data was analyzed using IBM SPSS Statistics version 20. General Linear Models for repeated measures were applied with the placebo condition included as contrast. Statistical outcomes for Tests of Within-Subjects Effects and Tests of Within-Subjects Contrasts were regarded for immediate and delayed free recall scores and for the summed immediate recall score (i.e. immediate 1+immediate 2+immediate 3). The factor Treatment (4 levels; placebo, roflumilast 100 mcg, roflumilast 300 mcg and roflumilast 1000 mcg) was included as a within subjects factor. For the analysis of the EEG data, the factor Channel (5 levels; Fz, FCz, Cz, CPz, and Pz) was included as a second within subjects factor. Peak and latency values of three memory related ERP's were analysed; i.e. P300, N400 and P600. In case of significant findings (p<0.05) post-hoc t-tests were performed to reveal which of the five midline electrodes contributed to the effect

SMILES: O=C(Nc1c(Cl)cncc1Cl)c1ccc(OC(F)F)c(OCC2CC2)c1 [roflumilast, N-(3,5-dichloropyridin-4-yl)-3-cyclopropylmethoxy-4-difluoromethoxybenzamide]
- number of correct words recalled after 3rd trial (in words) (100 mcg): significant increase in the number of correct words recalled
- placebo-corrected fold-improvement (100 mcg, 3rd trial, healthy volunteer study): 1.12
- number of words on the 3rd trial (100 mcg, young volunteers): 23.7 words
- number of correct words recalled (in words) (300 mcg and 1000 mcg, FIG. 2): some effect
- improvement in number of correct words recalled, average (single oral dose 100 mcg, after the third trial): 2.5 words
